In patent US12037458B2, “Process and premix for incorporating optical brighteners into a polymeric composition” (Elkem Silicones USA Corp., priority 2019, dated 2024):

Experiments:
[1] = Solubility of different optical brighteners in GLYMO, heated mixing (MM2); type: physicochemical; conditions: for # of particles observed MM2 / Brightness MM2 / Form a clear solution? Mixing Method 2 / Amount of undissolved OBA MM2: in GLYMO; for # of particles observed MM2 / Brightness MM2 / Amount of undissolved OBA MM2: heated mixing 50° C. (MM2); for Form a clear solution? Mixing Method 2: heated mixing 50° C. under nitrogen (MM2)
[2] = Solubility of Tinopal OB CO in different silanes / titanate (room-temperature mixing, black light inspection); conditions: for Forms a clear solution? / Amount of undissolved Tinopal ® OB CO: 0.072 g Tinopal OB CO in 10 g of compound; for Forms a clear solution?: mixed at room temperature, stored overnight; for Amount of undissolved Tinopal ® OB CO: room temperature; for # of particles observed: OBA particles, naked eye under black light; for Brightness: drop of mixture between glass plates under black light; for Solubility of Tinopal OB CO in the compound (in words): summary of Table 2
[3] = Saturation of optical brightener in GLYMO; type: physicochemical
Protocol: To determine the saturation level of optical brightener in GLYMO, increasing amounts of Tinopal® OB CO were mixed with GLYMO (0.25%, 0.5%, 1.0%, 2.0%, 3.0% Tinopal® OB CO), heated at 50° C. for one hour and then cooled while mixing.

[4] = Solubility of different optical brighteners in GLYMO, RT mixing (MM1)
[5] = heated at 50° C. for one hour, cooled while mixing

Compound | # of particles observed MM2 [1] | Brightness MM2 [1] | Form a clear solution? Mixing Method 2 [1] | Forms a clear solution? [2] | Amount of undissolved Tinopal ® OB CO [2] | # of particles observed [2] | Brightness [2] | Solubility of Tinopal OB CO in the compound (in words) [2] | Amount of undissolved OBA MM2 [1] | Amount of undissolved OBA MM1 ([4]; in GLYMO, RT mixing (MM1)) | Amount of undissolved optical brightener ([4]; in GLYMO, room temperature) | further results
C(=Cc1ccc(-c2nc3ccccc3o2)cc1)c1ccc(-c2nc3ccccc3o2)cc1 [Benetex ® OB-1 HP, benzoxazole, 2,2′-(1,2-ethenediyldi-4,1-phenylene)bis-] | >300 | high | no |  |  |  |  |  |  |  |  | 
O=S(=O)(O)c1ccccc1C=Cc1ccc(-c2ccc(C=Cc3ccccc3S(=O)(=O)O)cc2)cc1 [Benetex ® OB-M1, benzenesulfonic acid, 2,2′-([1,1′-biphenyl]-4,4′-diyldi-2,1-ethenediyl)bis-] | >100 | low | no |  |  |  |  |  |  |  |  | 
C=C(C)C(=O)OCCC[Si](OC)(OC)OC [MEMO] |  |  |  | Yes | zero | 0 | high | relatively good solubility |  |  |  | 
CC(C)(C)c1ccc2oc(-c3ccc(-c4nc5cc(C(C)(C)C)ccc5o4)s3)nc2c1 [Tinopal ® OB CO] | zero | high | Yes |  |  |  |  |  | Zero | low | low | Effect of heating (MM2) on solubility in GLYMO ([1]; MM2 versus MM1): improved the solubility; Amount of undissolved OBA MM2 ([1]; listed as Tinopal® OB CO): no undissolved particles; Concentration in GLYMO at which homogenously distributed [3, 5]: less than 1.0%; Concentration in GLYMO at which visible particles (agglomerates) were present [3, 5]: ≥ 1.0%; Average particle size of visible particles (agglomerates) ([3]; in GLYMO at concentrations of 1.0% or greater): ≥ 50 μm
CCN(CC)c1nc(Nc2ccc(C=Cc3ccc(Nc4nc(Nc5cc(S(=O)(=O)[O-])ccc5S(=O)(=O)[O-])nc(N(CC)CC)n4)cc3S(=O)(=O)[O-])c(S(=O)(=O)[O-])c2)nc(Nc2cc(S(=O)(=O)[O-])ccc2S(=O)(=O)[O-])n1.[Na+].[Na+].[Na+].[Na+].[Na+].[Na+] [Tinopal ® SFP] | 10-20 | low | No |  |  |  |  |  | Low | high | high | Forms a clear solution? ([4]; 0.072 g optical brightener in 10 g GLYMO, room temperature): No; # of particles observed MM1 ([4]; in GLYMO, RT mixing (MM1)): >300; Brightness MM1 ([4]; in GLYMO, RT mixing (MM1)): low; Form a clear solution? Mixing Method 1 ([4]; in GLYMO, RT mixing (MM1)): no; # of particles observed ([4]; in GLYMO, naked eye under black light): >300; Brightness ([4]; in GLYMO, under black light): low
C=C[Si](OC)(OC)OC [VTMO, vinyltrimethoxysilane] |  |  |  | Yes | low | 0 | high | relatively good solubility |  |  |  | 
